Reference: patent publication US12221418B2 (EYE HOSPITAL, WENZHOU MEDICAL UNIVERSITY, priority 2021, dated 2025)

Assays:
[1] = Photo- and thermal stability in the solvent, HPLC
[2] = pH 7.5
[3] = Stability in high humidity environment (moisture absorption weight gain); type: physicochemical; conditions: 25° C., RH90%±5%
Method: A moisture absorption gain ratio was calculated.

[4] = tested on: SV40 corneal epithelial cells; experiment: Hypertonic inflammatory cell model, RT-PCR of inflammation-related cytokine mRNA; type: cell-based, human; conditions: hypertonic model 500 mOsm, four hours of administration, vs. HS group, Ps<0.01
Method: SV40 cell culture: SV40 cells were cultured in a DMEM/F12 medium containing 10% fetal bovine serum, and added with insulin and a human epidermal growth factor at the same time, so that a final concentration of insulin in the medium was 5 μg/mL and a final concentration of the human epidermal growth factor was 10 ng/mL. The medium was routinely subcultured in a cell culture incubator with a temperature of 37° C., CO2 content of 5% and a humidity of 90%. The cells were grown to a fused state of 70%-90% for an experiment.
Preparation of solution: (1) preparation of hypertonic liquid (500 mOsm): 90 mmol/L NaCl solution was added to a serum-free medium. […]
(§1) Real-time PCR (RT-PCR): mRNA expressions of different groups of IL-6, IL-1β, IL-17A, IL-18, TNF-α, and NLRP3 were detected using RT-PCR. […] RNA was extracted from the cells according to an instruction of an RNA extraction kit, and a total amount of RNAs required to synthesize a cDNA template was calculated based on a measured concentration. cDNA was synthesized by an M-MLV reverse transcription kit, and the cDNA obtained by reverse transcription was stored at −20° C. for subsequent PCR amplification. […]
(§2) A SYBR Green fluorescent dye method was used for RT-PCR detection. A relatively quantified mRNA expression quantity of a target gene was calculated. […]

[5] = tested on: primary human corneal epithelial cells; experiment: as above; type: cell-based; conditions: Ps<0.01
Method: Primary human cell culture: the remaining limbus of the donor cornea used in a surgery was treated with an ophthalmic instrument into a tissue block carrying corneal stem cells, the tissue block was pasted at the bottom of a cell culture dish, cultured in an SHEM medium, and placed in a cell culture incubator with a temperature of 37° C., CO2 content of 5% and humidity of 90%; primary human corneal epithelial cells crawling out of the limbal stem cells can be seen after 3-5 days; and the cells were grown to a fused state of 70%-90% for an experiment.
Preparation of solution: (1) preparation of hypertonic liquid (500 mOsm): 90 mmol/L NaCl solution was added to a serum-free medium. (2) Preparation of a tested drug solution: 10 mg of the above prepared product was dissolved in 1 mL of 37° C. DMSO solution, prepared into […] mother liquor, and stored in a −20° C. refrigerator for later use; and the mother liquor was diluted with a serum-free medium to prepare drug solutions having final concentrations of 1 μmol/L and 10 μmol/L for an experiment. […]
as §1, §2
Real-time PCR (RT-PCR): mRNA expressions of different groups of IL-6, IL-1β, IL-17A, IL-18, TNF-α, and NLRP3 were detected using RT-PCR. […]

COc1ccc2cc3[n+](cc2c1OC)CCc1cc2c(cc1-3)OCO2 [Berberine base]
C ([1]; 0:00): 24.45 µg/mL | Purity ([1]; 0:00): 97.35% | C ([1]; 40° C. (in dark place), 8:00): 22.62 µg/mL | Purity ([1]; 40° C. (in dark place), 8:00): 97.17% | C ([1]; 40° C. (in dark place), Day 5): 22.41 µg/mL | Purity ([1]; 40° C. (in dark place), Day 5): 97.02% | C ([1]; 40° C. (in dark place), Day 10): 10.35 µg/mL | Purity ([1]; 40° C. (in dark place), Day 10): 96.86% | C ([1]; 60° C. (in dark place), 8:00): 22.45 µg/mL | Purity ([1]; 60° C. (in dark place), 8:00): 97.17% | C ([1]; 60° C. (in dark place), Day 5): 21.31 µg/mL | Purity ([1]; 60° C. (in dark place), Day 5): 96.96% | C ([1]; 60° C. (in dark place), Day 10): 9.68 µg/mL | Purity ([1]; 60° C. (in dark place), Day 10): 95.99% | C ([1]; Illumination, 8:00): 21.84 µg/mL | Purity ([1]; Illumination, 8:00): 97.62% | C ([1]; Illumination, Day 5): 14.70 µg/mL | Purity ([1]; Illumination, Day 5): 88.52% | C ([1]; Illumination, Day 10): 7.02 µg/mL | Purity ([1]; Illumination, Day 10): 74.89% | Concentration in solvent [2]: 24450 ng/mL | Weight gain percentage of Day 5 (%) [3]: 4.2% | Weight gain percentage of Day 10 (%) [3]: 6.7%

CC(C)(O)c1ccccc1CC[C@@H](SCC1(CC(=O)[O-])CC1)c1cccc(/C=C/c2ccc3ccc(Cl)cc3n2)c1.COc1ccc2cc3[n+](cc2c1OC)CCc1cc2c(cc1-3)OCO2 [Montelukast berberine double salt, (R,E)-2-(1-(((1-(3-(2-(7-chloroquinoline-2-yl)vinyl)phenyl)-3-(2-(2-hydroxypropyl-2-yl)phenyl)propyl)thio)methyl)cyclopropyl)acetic acid and 9,10-dimethoxy-5,6-dihydro-[1,3]dioxocyclo [4,5-g]isoquino[3,2-a]isoquinolin-7-onium conjugate]
inflammation-related cytokines (mRNA expression) ([4]; 1 μmol/L): significantly reduce | inflammation-related cytokines (mRNA expression) ([4]; 10 μmol/L): significantly reduce | inflammation-related cytokines (mRNA expression) ([5]; 0.5 μmol/L, compared with single drug of berberine and montelukast of the same concentration): significantly reduce | inflammation-related cytokines (mRNA expression) ([5]; 1 μmol/L, hypertonic model 500 mOsm, four hours of administration, vs. HS group): significantly reduce | inflammation-related cytokines (mRNA expression) ([5]; 10 μmol/L, hypertonic model 500 mOsm, four hours of administration, vs. HS group): significantly reduce | Weight gain percentage of Day 5 (%) [3]: 3.3% | Weight gain percentage of Day 10 (%) [3]: 4.9%

CC(C)(O)c1ccccc1CC[C@@H](SCC1(CC(=O)O)CC1)c1cccc(/C=C/c2ccc3ccc(Cl)cc3n2)c1 [Montelukast]
Weight gain percentage of Day 5 (%) [3]: 4.5% | Weight gain percentage of Day 10 (%) [3]: 5.3%
